Reference: ChEMBL document CHEMBL1287680, “C-11 diamino cryptolepine derivatives NSC748392, NSC748393, and NSC748394: anticancer profile and G-quadruplex stabilization” (Bioorg Med Chem Lett, 2010)

Key:
K562 = experiment: cells; details: Homo sapiens
Description: Anticancer activity against human K562 cells

HCC 2998 = experiment: cells; details: Homo sapiens
Description: Anticancer activity against human HCC2998 cells

in vivo = details: mouse, cancer cell lines
Description: Toxicity in cancer cells containing hollow fiber implanted mouse

OVCAR-8 = experiment: cells; details: Homo sapiens, OVCAR-8, read-out: pGI50 (converted)
Description: Anticancer activity against human OVCAR8 cells

SN12C = experiment: cells; details: Homo sapiens
Description: Anticancer activity against human SN12C cells

UO-31 = experiment: cells; details: Homo sapiens
Description: Anticancer activity against human UO31 cells

MOLT-4 = experiment: cells; details: Homo sapiens
Description: Anticancer activity against human MOLT4 cells

NCI-H23 = experiment: cells; details: Homo sapiens
Description: Anticancer activity against human NCI-H23 cells

HL-60(TB) = experiment: cells; details: Homo sapiens
Description: Anticancer activity against human HL-60(TB) cells

SK-MEL-5 = experiment: cells; details: Homo sapiens
Description: Anticancer activity against human SK-MEL-5 cells

T47D = experiment: cells; details: Homo sapiens
Description: Anticancer activity against human T47D cells

OVCAR-3 = experiment: cells; details: Homo sapiens
Description: Anticancer activity against human OVCAR-3 cells

ACHN = experiment: cells; details: Homo sapiens
Description: Anticancer activity against human ACHN cells

KM12 = experiment: cells; details: Homo sapiens
Description: Anticancer activity against human KM12 cells

SNB-19 = experiment: cells; details: Homo sapiens
Description: Anticancer activity against human SNB19 cells

HOP-62 = experiment: cells; details: Homo sapiens
Description: Anticancer activity against human HOP62 cells

SW-620 = experiment: cells; details: Homo sapiens
Description: Anticancer activity against human SW620 cells

NCI-H522 = experiment: cells; details: Homo sapiens
Description: Anticancer activity against human NCI-H522 cells

HOP-92 = experiment: cells; details: Homo sapiens
Description: Anticancer activity against human HOP92 cells

OVCAR-5 = experiment: cells; details: Homo sapiens
Description: Anticancer activity against human OVCAR5 cells

UACC-257 = experiment: cells; details: Homo sapiens
Description: Anticancer activity against human UACC257 cells

MCF7 = experiment: cells; details: Homo sapiens
Description: Anticancer activity against human MCF7 cells

CAKI-1 = experiment: cells; details: Homo sapiens
Description: Anticancer activity against human Caki1 cells

BT-549 = experiment: cells; details: Homo sapiens
Description: Anticancer activity against human BT549 cells

DU-145 = experiment: cells; details: Homo sapiens
Description: Anticancer activity against human DU145 cells

SK-MEL-28 = experiment: cells; details: Homo sapiens
Description: Anticancer activity against human SK-MEL-28 cells

Malme-3M = experiment: cells; details: Homo sapiens
Description: Anticancer activity against human MALME-3M cells

PC-3 = experiment: cells; details: Homo sapiens
Description: Anticancer activity against human PC3 cells

Nucleic Acid = details: Homo sapiens
Description: Binding affinity to human duplex DNA assessed as change in melting temperature by FRET-melting assay

SK-OV-3 = experiment: cells; details: Homo sapiens
Description: Anticancer activity against human SKOV3 cells

MDA-MB-231 = experiment: cells; details: Homo sapiens
Description: Anticancer activity against human MDA-MB-231 cells

HCT-15 = experiment: cells; details: Homo sapiens
Description: Anticancer activity against human HCT15 cells

Vero = experiment: cells; details: Chlorocebus sabaeus, 48 h
Description: Cytotoxicity against african green monkey Vero cells after 48 hrs by MTT assay

NCI-H322M = experiment: cells; details: Homo sapiens
Description: Anticancer activity against human NCI-H322M cells

## C[n+]1c2ccccc2c(Nc2ccc(N3CCCCC3)cc2)c2[nH]c3ccccc3c21.[Cl-]
K562; K562, read-out: pLC50 (converted)
  CC50: > 100000 nM
K562; K562, read-out: pTGI
  TGI: > 100000 nM
HCC 2998; HCC 2998, read-out: pGI50 (converted)
  GI50: 162 nM
HCC 2998; HCC 2998, read-out: pLC50 (converted)
  CC50: 813 nM
HCC 2998; HCC 2998, read-out: pTGI
  TGI: 363 nM
In vivo
  MTD: 160 mg/kg
OVCAR-8
  GI50: 316 nM
SN12C; read-out: pGI50 (converted)
  GI50: 204 nM
SN12C; read-out: pLC50 (converted)
  CC50: 6760 nM
SN12C; read-out: pTGI
  TGI: 1410 nM
UO-31; UO-31, read-out: pGI50 (converted)
  GI50: 145 nM
UO-31; UO-31, read-out: pLC50 (converted)
  CC50: 3020 nM
UO-31; UO-31, read-out: pTGI
  TGI: 832 nM
MOLT-4; MOLT-4, read-out: pGI50 (converted)
  GI50: 70.8 nM
MOLT-4; MOLT-4, read-out: pLC50 (converted)
  CC50: > 100000 nM
MOLT-4; MOLT-4, read-out: pTGI
  TGI: 8710 nM
NCI-H23; NCI-H23, read-out: pGI50 (converted)
  GI50: 398 nM
NCI-H23; NCI-H23, read-out: pLC50 (converted)
  CC50: 6610 nM
NCI-H23; NCI-H23, read-out: pTGI
  TGI: 1700 nM
HL-60(TB); HL-60, read-out: pGI50 (converted)
  GI50: 617 nM
HL-60(TB); HL-60, read-out: pLC50 (converted)
  CC50: > 100000 nM
SK-MEL-5; SK-MEL-5, read-out: pGI50 (converted)
  GI50: 229 nM
SK-MEL-5; SK-MEL-5, read-out: pLC50 (converted)
  CC50: 3470 nM
SK-MEL-5; SK-MEL-5, read-out: pTGI
  TGI: 1200 nM
T47D; read-out: pGI50 (converted)
  GI50: 214 nM
T47D; read-out: pTGI
  TGI: 603 nM
OVCAR-3; OVCAR-3, read-out: pGI50 (converted)
  GI50: 224 nM
OVCAR-3; OVCAR-3, read-out: pLC50 (converted)
  CC50: 933 nM
OVCAR-3; OVCAR-3, read-out: pTGI
  TGI: 457 nM
ACHN; read-out: pGI50 (converted)
  GI50: 288 nM
ACHN; read-out: pLC50 (converted)
  CC50: 3890 nM
ACHN; read-out: pTGI
  TGI: 1450 nM
KM12; KM12, read-out: pGI50 (converted)
  GI50: 372 nM
KM12; KM12, read-out: pLC50 (converted)
  CC50: 5130 nM
KM12; KM12, read-out: pTGI
  TGI: 1480 nM
SNB-19; SNB-19, read-out: pGI50 (converted)
  GI50: 427 nM
SNB-19; SNB-19, read-out: pLC50 (converted)
  CC50: 4370 nM
SNB-19; SNB-19, read-out: pTGI
  TGI: 1780 nM
HOP-62; HOP-62, read-out: pGI50 (converted)
  GI50: 741 nM
HOP-62; HOP-62, read-out: pLC50 (converted)
  CC50: 5250 nM
HOP-62; HOP-62, read-out: pTGI
  TGI: 2190 nM
SW-620; SW-620, read-out: pGI50 (converted)
  GI50: 105 nM
SW-620; SW-620, read-out: pTGI
  TGI: 372 nM
NCI-H522; NCI-H522, read-out: pGI50 (converted)
  GI50: 741 nM
NCI-H522; NCI-H522, read-out: pTGI
  TGI: 2140 nM
HOP-92; HOP-92, read-out: pGI50 (converted)
  GI50: 263 nM
HOP-92; HOP-92, read-out: pLC50 (converted)
  CC50: 5130 nM
HOP-92; HOP-92, read-out: pTGI
  TGI: 1200 nM
OVCAR-5; OVCAR-5, read-out: pGI50 (converted)
  GI50: 1070 nM
OVCAR-5; OVCAR-5, read-out: pLC50 (converted)
  CC50: 5500 nM
OVCAR-5; OVCAR-5, read-out: pTGI
  TGI: 2400 nM
UACC-257; UACC-257, read-out: pGI50 (converted)
  GI50: 1230 nM
UACC-257; UACC-257, read-out: pTGI
  TGI: 2690 nM
MCF7; MCF7, read-out: pGI50 (converted)
  GI50: 126 nM
MCF7; MCF7, read-out: pLC50 (converted)
  CC50: 912 nM
MCF7; MCF7, read-out: pTGI
  TGI: 339 nM
CAKI-1; CAKI-1, read-out: pGI50 (converted)
  GI50: 234 nM
CAKI-1; CAKI-1, read-out: pLC50 (converted)
  CC50: 3160 nM
CAKI-1; CAKI-1, read-out: pTGI
  TGI: 794 nM
BT-549; BT-549, read-out: pGI50 (converted)
  GI50: 1290 nM
BT-549; BT-549, read-out: pLC50 (converted)
  CC50: 5250 nM
BT-549; BT-549, read-out: pTGI
  TGI: 2630 nM
DU-145; DU-145, read-out: pGI50 (converted)
  GI50: 398 nM
DU-145; DU-145, read-out: pLC50 (converted)
  CC50: 4170 nM
DU-145; DU-145, read-out: pTGI
  TGI: 1480 nM
SK-MEL-28; SK-MEL-28, read-out: pGI50 (converted)
  GI50: 372 nM
SK-MEL-28; SK-MEL-28, read-out: pLC50 (converted)
  CC50: 3470 nM
SK-MEL-28; SK-MEL-28, read-out: pTGI
  TGI: 1150 nM
Malme-3M; read-out: pGI50 (converted)
  GI50: 417 nM
Malme-3M; read-out: pLC50 (converted)
  CC50: 4570 nM
Malme-3M; read-out: pTGI
  TGI: 1700 nM
PC-3; PC-3, read-out: pGI50 (converted)
  GI50: 195 nM
PC-3; PC-3, read-out: pLC50 (converted)
  CC50: 3240 nM
PC-3; PC-3, read-out: pTGI
  TGI: 631 nM
Nucleic Acid
  ΔTm: 1.2 °C
SK-OV-3; SK-OV-3, read-out: pGI50 (converted)
  GI50: 513 nM
SK-OV-3; SK-OV-3, read-out: pLC50 (converted)
  CC50: 4270 nM
SK-OV-3; SK-OV-3, read-out: pTGI
  TGI: 1860 nM
MDA-MB-231; MDA-MB-231, read-out: pGI50 (converted)
  GI50: 490 nM
MDA-MB-231; MDA-MB-231, read-out: pLC50 (converted)
  CC50: 6030 nM
MDA-MB-231; MDA-MB-231, read-out: pTGI
  TGI: 2090 nM
HCT-15; HCT-15, read-out: pGI50 (converted)
  GI50: 170 nM
HCT-15; HCT-15, read-out: pLC50 (converted)
  CC50: 912 nM
HCT-15; HCT-15, read-out: pTGI
  TGI: 398 nM
Vero
  IC50: 4830 nM
NCI-H322M; read-out: pGI50 (converted)
  GI50: 1020 nM
NCI-H322M; read-out: pLC50 (converted)
  CC50: 5500 nM
NCI-H322M; read-out: pTGI
  TGI: 2400 nM
